Values quoted from earlier work as cited in patent publication US9320732B2, “1,2,5-oxadiazoles as inhibitors of indoleamine 2,3-dioxygenase” (Incyte Corporation, priority 2008, dated 2016).

What was measured:
[1] = tested on: allogeneic concepti in pregnant mice; details: pregnant mice exposed to 1MT
[2] = tested on: LLC tumors; details: C57Bl/6 mice, versus placebo
[3] = tested on: P815 tumor; details: immune-competent pre-immunized mice

Cn1cc(C[C@H](N)C(=O)O)c2ccccc21 [Example 1-MT, 1-methyl-tryptophan]
rejection of allogeneic concepti [1]: rapid, T cell-induced rejection of all allogeneic concepti
formation of LLC tumors [2]: markedly delayed
growth of tumors in pre-immunization model [3]: inhibited
